Laboratory results as given in patent publication US11660258B2, “Alcohol containing non-antimicrobial cleansing composition” (GOJO Industries, Inc., priority 2017, dated 2023).

Assays:
human skin [1] = assay: Forearm controlled application test (FCAT), transepidermal water loss (TEWL)
Experimental: (§1) Topical compositions were tested on skin samples for their ability to improve or maintain skin hydration and limit transepidermal water loss (TEWL). Measurement of the TEWL, expressed in grams per square meter and per hour, is used for studying the water barrier function of the human skin. The more perfect the skin protective coat, the higher the water content and the lower the TEWL. For each of the tests, a negative control was used, which included treatment with 8% SLS. An untreated skin sample was also tested for comparison. The tests were performed using the forearm controlled application test (FCAT) methodology. The various samples were applied to test sites on a forearm over the course of several days. On each day, up to six applications were made and the change in TEWL and hydration levels were recorded. The hydration levels were measured using a Corneometer® based on capacitance measurement of a dielectric medium. The Corneometer® measures the change in the dielectric constant due to skin surface hydration changing the capacitance of a precision capacitor. The measurement can detect even slight changes in the hydration level.
(§2) The compositions that were tested include the following, in weight %, based on the weight of the total composition: […]

human skin [2] = assay: Forearm controlled application test (FCAT), skin hydration by Corneometer
Experimental: as §1, §2

[3] = Example 2, wet and dry application, after 3 and 5 days of treatment

CCCCCCCCCCCCOS(=O)(=O)[O-].[Na+] [negative control, sodium lauryl sulfate]
TEWL (change vs baseline) (human skin [1]; Example 1, FIG. 6, up to six applications per day over several days): highest TEWL
change in TEWL (human skin [1]; [3]): significant TEWL
hydration levels (change vs baseline) (human skin [2]; Example 1, FIG. 5, up to six applications per day over several days): lowest hydration levels
change in hydration levels (human skin [2]; [3]): significant reduction in hydration level
